Measurements published in patent publication US9790178B2, “Pyrrolidinyl urea, thiourea, guanidine and cyanoguanidine compounds as TrkA kinase inhibitors” (Array BioPharma Inc., priority 2012, dated 2017).

What was measured:
Experiment in all cases: KinaseProfiler off-target kinase profiling
Assay type in all cases: biochemical
Details in all cases: 10 μM, ATP near Km
[1] = target: T1, CK1gamma2 (Homo sapiens, UniProt P78368)
T1 construct: purchased Millipore, Inc. (KinaseProfiler service)
Description: (§1) A representative compound of the invention (Example 20) was tested for off-target kinase activity at a concentration of 10 μM by Millipore, Inc. in their KinaseProfiler™ service against all the kinases available in their full kinase panel. The compound was run in duplicate at a concentration of ATP near the Km for each individual kinase according to Millipore's specifications. The results are shown in Table B. Data are reported as percent of control (POC) and are the average of the two replicates.

[2] = target: T2, BTK (Homo sapiens, UniProt Q06187)
T2 construct: purchased Millipore, Inc. (KinaseProfiler service)
Description: as §1

[3] = target: T3, EphA2 (Homo sapiens, UniProt P29317)
T3 construct: purchased Millipore, Inc. (KinaseProfiler service)
Description: as §1

[4] = target: T4, IR (Homo sapiens, UniProt P06213)
T4 construct: purchased Millipore, Inc. (KinaseProfiler service)
Description: as §1

[5] = test system: CK1_y
Description: as §1

[6] = target: T5, Fyn (Homo sapiens, UniProt P06241)
T5 construct: purchased Millipore, Inc. (KinaseProfiler service)
Description: as §1

[7] = target: T6, mTOR (Homo sapiens, UniProt P42345)
T6 construct: purchased Millipore, Inc. (KinaseProfiler service)
Description: as §1

[8] = target: T7, CLK3 (Homo sapiens, UniProt P49761)
T7 construct: purchased Millipore, Inc. (KinaseProfiler service)
Description: as §1

[9] = target: T8, CDK6/cyclinD3 (Homo sapiens, UniProt Q00534)
T8 construct: purchased Millipore, Inc. (KinaseProfiler service)
Description: as §1

[10] = target: T9, ALK4 (Homo sapiens, UniProt P36896)
T9 construct: purchased Millipore, Inc. (KinaseProfiler service)
Description: as §1

[11] = target: T10, Bmx (Homo sapiens, UniProt P51813)
T10 construct: purchased Millipore, Inc. (KinaseProfiler service)
Description: as §1

[12] = target: T11, ITK (Homo sapiens, UniProt Q08881)
T11 construct: purchased Millipore, Inc. (KinaseProfiler service)
Description: as §1

[13] = target: T12, DAPK2 (Homo sapiens, UniProt Q9UIK4)
T12 construct: purchased Millipore, Inc. (KinaseProfiler service)
Description: as §1

[14] = target: T13, EphA1 (Homo sapiens, UniProt P21709)
T13 construct: purchased Millipore, Inc. (KinaseProfiler service)
Description: as §1

[15] = target: T14, MSSK1 (Homo sapiens, UniProt Q9UPE1)
T14 construct: purchased Millipore, Inc. (KinaseProfiler service)
Description: as §1

[16] = target: T15, CAMK1d (Homo sapiens, UniProt Q8IU85)
T15 construct: purchased Millipore, Inc. (KinaseProfiler service)
Description: as §1

[17] = target: T16, TAO1 (Homo sapiens, UniProt Q7L7X3)
T16 construct: purchased Millipore, Inc. (KinaseProfiler service)
T16 sequence (Q7L7X3 whole entry): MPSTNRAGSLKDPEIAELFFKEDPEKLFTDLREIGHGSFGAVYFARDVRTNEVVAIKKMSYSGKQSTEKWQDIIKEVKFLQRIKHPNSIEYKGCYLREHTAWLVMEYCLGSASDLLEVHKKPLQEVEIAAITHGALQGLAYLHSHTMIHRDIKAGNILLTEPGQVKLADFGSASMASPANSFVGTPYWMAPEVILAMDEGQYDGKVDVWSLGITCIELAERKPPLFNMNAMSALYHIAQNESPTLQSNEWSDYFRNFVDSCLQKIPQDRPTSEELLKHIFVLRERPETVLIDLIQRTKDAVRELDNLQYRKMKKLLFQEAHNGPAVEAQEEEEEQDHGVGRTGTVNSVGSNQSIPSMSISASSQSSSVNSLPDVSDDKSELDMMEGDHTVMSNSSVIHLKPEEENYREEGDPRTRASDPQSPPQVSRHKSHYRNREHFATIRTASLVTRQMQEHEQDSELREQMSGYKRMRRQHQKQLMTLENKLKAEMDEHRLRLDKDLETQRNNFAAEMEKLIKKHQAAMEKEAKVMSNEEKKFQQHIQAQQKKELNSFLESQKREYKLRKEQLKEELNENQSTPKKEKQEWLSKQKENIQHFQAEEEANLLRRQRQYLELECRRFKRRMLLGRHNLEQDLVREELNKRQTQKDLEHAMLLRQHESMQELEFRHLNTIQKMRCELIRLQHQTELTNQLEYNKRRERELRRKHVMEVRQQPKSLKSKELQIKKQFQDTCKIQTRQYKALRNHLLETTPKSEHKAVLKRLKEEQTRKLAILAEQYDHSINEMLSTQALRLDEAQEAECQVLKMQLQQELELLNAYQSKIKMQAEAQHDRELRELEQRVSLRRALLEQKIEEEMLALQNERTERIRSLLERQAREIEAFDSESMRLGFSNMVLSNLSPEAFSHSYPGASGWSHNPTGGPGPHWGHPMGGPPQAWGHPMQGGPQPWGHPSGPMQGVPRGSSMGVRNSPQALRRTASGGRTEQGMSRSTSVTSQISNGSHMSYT
Description: as §1

[18] = target: T17, p38gamma (Homo sapiens, UniProt P53778)
T17 construct: purchased Millipore, Inc. (KinaseProfiler service)
T17 sequence (P53778 whole entry): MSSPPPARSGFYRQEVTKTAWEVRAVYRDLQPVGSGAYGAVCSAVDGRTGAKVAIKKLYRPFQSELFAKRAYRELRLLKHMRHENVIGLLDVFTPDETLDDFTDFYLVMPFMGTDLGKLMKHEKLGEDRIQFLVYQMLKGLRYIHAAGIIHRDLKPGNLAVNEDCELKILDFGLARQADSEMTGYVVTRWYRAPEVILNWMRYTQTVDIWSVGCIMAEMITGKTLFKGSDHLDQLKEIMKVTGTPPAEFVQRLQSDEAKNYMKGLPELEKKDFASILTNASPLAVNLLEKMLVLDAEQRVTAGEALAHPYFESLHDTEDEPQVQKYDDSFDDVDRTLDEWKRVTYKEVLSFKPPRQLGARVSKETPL
Description: as §1

[19] = target: T18, RIPK2 (Homo sapiens, UniProt O43353)
T18 construct: purchased Millipore (KinaseProfiler service)
Description: as §1

[20] = target: T19, SIK (Homo sapiens, UniProt P57059)
T19 construct: purchased Millipore, Inc. (KinaseProfiler service)
Description: as §1

[21] = target: T20, Fms (Homo sapiens, UniProt P07333)
T20 construct: purchased Millipore, Inc. (KinaseProfiler service)
Description: as §1

[22] = target: T21, TSSK1 (Homo sapiens, UniProt Q9BXA7)
T21 construct: purchased Millipore, Inc. (KinaseProfiler service)
T21 sequence (Q9BXA7 whole entry): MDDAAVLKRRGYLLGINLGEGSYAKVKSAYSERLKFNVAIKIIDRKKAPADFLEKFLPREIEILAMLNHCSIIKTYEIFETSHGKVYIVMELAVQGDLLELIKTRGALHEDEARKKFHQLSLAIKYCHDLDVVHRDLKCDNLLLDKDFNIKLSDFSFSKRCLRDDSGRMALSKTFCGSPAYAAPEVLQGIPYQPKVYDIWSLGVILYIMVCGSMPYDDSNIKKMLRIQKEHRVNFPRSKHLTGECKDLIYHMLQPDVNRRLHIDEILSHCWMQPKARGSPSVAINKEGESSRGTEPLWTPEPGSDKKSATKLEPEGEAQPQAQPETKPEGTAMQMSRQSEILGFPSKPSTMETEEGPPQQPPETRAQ
Description: as §1

[23] = target: T22, Ret (Homo sapiens, UniProt P07949)
T22 construct: purchased Millipore (KinaseProfiler service)
T22 sequence (P07949 29-1114): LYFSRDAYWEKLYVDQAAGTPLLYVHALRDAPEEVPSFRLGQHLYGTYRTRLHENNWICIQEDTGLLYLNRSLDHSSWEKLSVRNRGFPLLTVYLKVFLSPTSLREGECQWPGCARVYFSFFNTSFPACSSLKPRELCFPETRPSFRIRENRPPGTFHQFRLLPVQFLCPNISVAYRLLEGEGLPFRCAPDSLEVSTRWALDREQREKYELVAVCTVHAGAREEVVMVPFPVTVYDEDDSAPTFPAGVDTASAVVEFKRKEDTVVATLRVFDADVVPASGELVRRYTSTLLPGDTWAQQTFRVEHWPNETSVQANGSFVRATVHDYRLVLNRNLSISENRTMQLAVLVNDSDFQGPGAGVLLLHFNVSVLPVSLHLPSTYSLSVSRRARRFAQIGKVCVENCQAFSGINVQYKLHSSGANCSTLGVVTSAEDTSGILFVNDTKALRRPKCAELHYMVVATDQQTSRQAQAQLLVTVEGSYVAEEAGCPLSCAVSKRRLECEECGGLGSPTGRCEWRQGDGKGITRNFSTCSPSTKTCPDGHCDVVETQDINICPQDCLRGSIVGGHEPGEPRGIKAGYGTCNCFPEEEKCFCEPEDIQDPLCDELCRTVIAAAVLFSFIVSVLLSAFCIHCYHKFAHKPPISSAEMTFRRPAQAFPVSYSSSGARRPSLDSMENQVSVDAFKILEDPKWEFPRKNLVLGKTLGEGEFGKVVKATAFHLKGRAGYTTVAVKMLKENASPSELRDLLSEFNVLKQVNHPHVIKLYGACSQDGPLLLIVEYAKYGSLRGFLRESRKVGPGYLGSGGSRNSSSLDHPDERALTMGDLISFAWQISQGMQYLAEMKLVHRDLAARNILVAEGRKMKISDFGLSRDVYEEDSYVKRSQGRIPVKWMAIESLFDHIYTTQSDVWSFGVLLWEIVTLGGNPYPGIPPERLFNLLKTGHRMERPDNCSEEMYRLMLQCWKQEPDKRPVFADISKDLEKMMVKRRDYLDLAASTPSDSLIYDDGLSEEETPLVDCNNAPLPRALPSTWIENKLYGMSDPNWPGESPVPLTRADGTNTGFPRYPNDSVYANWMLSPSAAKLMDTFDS
Description: as §1

[24] = target: T23, Rsk4 (Homo sapiens, UniProt Q9UK32)
T23 construct: purchased Millipore, Inc. (KinaseProfiler service)
Description: as §1

[25] = target: T24, MAPKAP-K3 (Homo sapiens, UniProt Q16644)
T24 construct: purchased Millipore, Inc. (KinaseProfiler service)
T24 sequence (Q16644 whole entry): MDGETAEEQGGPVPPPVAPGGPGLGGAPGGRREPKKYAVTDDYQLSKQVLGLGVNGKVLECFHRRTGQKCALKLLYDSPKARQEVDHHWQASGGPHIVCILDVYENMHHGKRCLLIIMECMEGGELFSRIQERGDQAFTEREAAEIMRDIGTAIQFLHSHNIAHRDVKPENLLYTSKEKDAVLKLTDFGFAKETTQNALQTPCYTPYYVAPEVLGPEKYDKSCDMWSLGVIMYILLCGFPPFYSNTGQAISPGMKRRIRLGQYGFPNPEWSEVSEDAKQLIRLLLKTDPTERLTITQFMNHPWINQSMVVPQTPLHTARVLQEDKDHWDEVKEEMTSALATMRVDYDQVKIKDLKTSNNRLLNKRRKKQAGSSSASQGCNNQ
Description: as §1

[26] = target: T25, CDK2/cyclinE (Homo sapiens, UniProt P24941)
T25 construct: purchased Millipore, Inc. (KinaseProfiler service)
Description: as §1

[27] = target: T26, MAP4K2 (Homo sapiens, UniProt Q12851)
T26 construct: purchased Millipore, Inc. (KinaseProfiler service)
Description: as §1

[28] = target: T27, EphA7 (Homo sapiens, UniProt Q15375)
T27 construct: purchased Millipore, Inc. (KinaseProfiler service)
Description: as §1

[29] = target: T28, PAK6 (Homo sapiens, UniProt Q9NQU5)
T28 construct: purchased Millipore, Inc. (KinaseProfiler service)
Description: as §1

[30] = target: T29, PrKX (Homo sapiens, UniProt P51817)
T29 construct: purchased Millipore (KinaseProfiler service)
Description: as §1

[31] = target: T30, PAK5 (Homo sapiens, UniProt Q9P286)
T30 construct: purchased Millipore, Inc. (KinaseProfiler service)
Description: as §1

[32] = target: T31, CDK2/cyclinA (Homo sapiens, UniProt P24941)
T31 construct: purchased Millipore, Inc. (KinaseProfiler service)
Description: as §1

[33] = target: T32, MRCKbeta (Homo sapiens, UniProt Q9Y5S2)
T32 construct: purchased Millipore, Inc. (KinaseProfiler service)
Description: as §1

[34] = target: T33, IRAK4 (Homo sapiens, UniProt Q9NWZ3)
T33 construct: purchased Millipore, Inc. (KinaseProfiler service)
T33 sequence (Q9NWZ3 whole entry): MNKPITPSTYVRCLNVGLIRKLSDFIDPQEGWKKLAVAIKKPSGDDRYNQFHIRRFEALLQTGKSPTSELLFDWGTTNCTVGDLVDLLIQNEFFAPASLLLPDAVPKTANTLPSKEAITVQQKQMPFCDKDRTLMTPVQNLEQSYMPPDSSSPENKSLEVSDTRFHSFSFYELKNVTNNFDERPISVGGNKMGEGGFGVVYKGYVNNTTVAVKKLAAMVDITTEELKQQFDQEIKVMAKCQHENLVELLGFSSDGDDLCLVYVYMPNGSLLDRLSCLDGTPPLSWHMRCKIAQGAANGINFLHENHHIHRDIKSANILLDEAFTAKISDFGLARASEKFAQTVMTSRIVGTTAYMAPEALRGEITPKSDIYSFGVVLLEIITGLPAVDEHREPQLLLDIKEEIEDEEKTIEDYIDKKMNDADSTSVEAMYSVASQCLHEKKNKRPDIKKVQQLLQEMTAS
Description: as §1

[35] = target: T34, DRAK1 (Homo sapiens, UniProt Q9UEE5)
T34 construct: purchased Millipore, Inc. (KinaseProfiler service)
T34 sequence (Q9UEE5 whole entry): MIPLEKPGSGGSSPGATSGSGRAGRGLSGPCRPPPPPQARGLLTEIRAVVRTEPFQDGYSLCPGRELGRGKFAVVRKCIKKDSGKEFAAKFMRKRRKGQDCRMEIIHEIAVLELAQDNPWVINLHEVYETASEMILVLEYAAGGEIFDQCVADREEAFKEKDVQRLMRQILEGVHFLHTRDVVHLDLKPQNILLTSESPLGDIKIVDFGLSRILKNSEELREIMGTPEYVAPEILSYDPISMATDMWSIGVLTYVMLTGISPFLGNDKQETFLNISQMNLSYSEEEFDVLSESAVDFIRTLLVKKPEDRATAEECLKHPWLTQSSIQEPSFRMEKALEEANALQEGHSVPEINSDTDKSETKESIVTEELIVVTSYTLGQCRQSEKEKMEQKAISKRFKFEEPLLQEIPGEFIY
Description: as §1

[36] = target: T35, IKKalpha (Homo sapiens, UniProt O15111)
T35 construct: purchased Millipore, Inc. (KinaseProfiler service)
Description: as §1

[37] = target: T36, PKCiota (Homo sapiens, UniProt P41743)
T36 construct: purchased Millipore (KinaseProfiler service)
T36 sequence (P41743 whole entry): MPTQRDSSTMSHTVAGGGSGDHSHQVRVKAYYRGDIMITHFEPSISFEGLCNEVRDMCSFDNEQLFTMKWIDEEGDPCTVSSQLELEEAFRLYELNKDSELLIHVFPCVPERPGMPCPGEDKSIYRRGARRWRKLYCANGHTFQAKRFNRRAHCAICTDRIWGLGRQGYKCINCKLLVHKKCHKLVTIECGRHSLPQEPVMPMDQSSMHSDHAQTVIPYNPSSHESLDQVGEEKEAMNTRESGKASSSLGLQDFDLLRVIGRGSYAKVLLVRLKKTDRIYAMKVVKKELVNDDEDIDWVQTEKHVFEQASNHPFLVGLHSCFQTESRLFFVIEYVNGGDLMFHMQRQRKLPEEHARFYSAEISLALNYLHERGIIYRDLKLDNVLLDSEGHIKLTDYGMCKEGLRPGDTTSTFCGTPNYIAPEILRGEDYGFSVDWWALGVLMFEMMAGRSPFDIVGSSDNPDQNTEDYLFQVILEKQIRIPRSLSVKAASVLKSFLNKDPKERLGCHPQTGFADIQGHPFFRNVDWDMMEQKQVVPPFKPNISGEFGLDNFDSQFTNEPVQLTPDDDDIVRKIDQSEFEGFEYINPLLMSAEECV
Description: as §1

[38] = target: T37, p70S6K (Homo sapiens, UniProt P23443)
T37 construct: purchased Millipore, Inc. (KinaseProfiler service)
Description: as §1

[39] = target: T38, IRAK1 (Homo sapiens, UniProt P51617)
T38 construct: purchased Millipore, Inc. (KinaseProfiler service)
Description: as §1

[40] = target: T39, FGFR3 (Homo sapiens, UniProt P22607)
T39 construct: purchased Millipore, Inc. (KinaseProfiler service)
Description: as §1

[41] = target: T40, CDK7/cyclinH/MAT1 (Homo sapiens, UniProt P50613)
T40 construct: purchased Millipore, Inc. (KinaseProfiler service)
Description: as §1

- Avg. POC [1]: 110 POC
- Avg. POC [2]: 112.5 POC
- Avg. POC [3]: 107.5 POC
- Avg. POC [4]: 87.5 POC
- Avg. POC [5]: 104 POC
- Avg. POC [6]: 128.5 POC
- Avg. POC [7]: 108 POC
- Avg. POC [8]: 107 POC
- Avg. POC [9]: 103.5 POC
- Avg. POC [10]: 98.5 POC
- Avg. POC [11]: 103.5 POC
- Avg. POC [12]: 122.5 POC
- Avg. POC [13]: 104 POC
- Avg. POC [14]: 99 POC
- Avg. POC [15]: 108.5 POC
- Avg. POC [16]: 107.5 POC
- Avg. POC [17]: 106 POC
- Avg. POC [18]: 105.5 POC
- Avg. POC [19]: 97.5 POC
- Avg. POC [20]: 97.5 POC
- Avg. POC [21]: 87.5 POC
- Avg. POC [22]: 107 POC
- Avg. POC [23]: 97.5 POC
- Avg. POC [24]: 147 POC
- Avg. POC [25]: 105 POC
- Avg. POC [26]: 118.5 POC
- Avg. POC [27]: 112 POC
- Avg. POC [28]: 104.5 POC
- Avg. POC [29]: 102 POC
- Avg. POC [30]: 120.5 POC
- Avg. POC [31]: 105.5 POC
- Avg. POC [32]: 112 POC
- Avg. POC [33]: 118.5 POC
- Avg. POC [34]: 124 POC
- Avg. POC [35]: 107 POC
- Avg. POC [36]: 121 POC
- Avg. POC [37]: 101.5 POC
- Avg. POC [38]: 112 POC
- Avg. POC [39]: 109.5 POC
- Avg. POC [40]: 101 POC
- Avg. POC [41]: 101.5 POC
Structure (SMILES): COCCN1C[C@@H](NC(=O)Nc2c(-c3ccccc3)nc3c(C)nccn23)[C@H](c2ccc(F)c(F)c2)C1 [Example 20, 1-((3S,4R)-4-(3,4-difluorophenyl)-1-(2-methoxyethyl)pyrrolidin-3-yl)-3-(8-methyl-2-phenylimidazo[1,2-a]pyrazin-3-yl)urea]
